Results taken from patent US11578110B2, “Compounds for inducing tissue formation and uses thereof” (HISTIDE AG, priority 2015, dated 2023).
No end group written: not given here.

system: Human Hematopoietic Stem Cells; assay: CD-34+ stemness marker expression (immunostaining, ImageJ quantification); type: cell-based; settings: peptides grafted on a PET surface; 48 hours

First: AASKASSAPTKMSPINILYF (GFR-binding peptide) [SEQ ID NO: 1079]
Second: AASKASSSRVEESATSTLYY (GFR-binding peptide) [SEQ ID NO: 1075]
The “CD34+ Expression” value of the first is higher: 30% for the first, 28% for the second.

system: hMSCs; assay: STRO-1 stemness marker expression in hMSCs (immunostaining, ImageJ quantification); type: cell-based, Human; settings: SEQ ID NO: 1 to 49 tested in combination with a bioactive carrier (titanium, ceramics, PEEK, hydrogel, etc.)
Method: The cells were first fixed for 20 min with 4% paraformaldehyde/PBS at 4° C. After fixation, the cells were permeabilized in PBS containing 1% Triton X-100 for 15 min. Runx2, Osterix, Stro-1, Vinculin, Phalloidin, Osteopontin, Sox2, Sox9 antibodies were visualized by treating the cells with 1% (v/v) specific monoclonal antibodies for 1 hour at 37° C. Then the samples were incubated with Alexa fluor® 568 or 647 (F(ab′)2 fragment of IgG(H+L)) during 30 min at room temperature. The cell nuclei were counterstained in 20 ng/mL DAPI for 10 min at room temperature.
For this type of quantification the freeware image analysis ImageJ® software was used. The raw image was first converted to an 8-bit file, and then the unsharp mask feature was used (settings 1:0.2) to remove the image background (rolling ball radius 10). After smoothing, the resulting image, which appears similar to the original photomicrograph but with minimal background, was then converted to a binary image by setting a threshold. Threshold values were determined empirically by selecting a setting, which gave the most accurate binary image for a subset of randomly selected photomicrographs. The cell area was determined by manual delineation on raw fluorescent images. Total contact area and mean contact area per cell were calculated by “analyse particles” in ImageJ®. A minimum of 30 cells per condition were analyzed. Stro-1, CD-34+, and CD-105 expressions were determined using this procedure.
hMSCs were cultured on conventional cell culture plastic plates with or without the presence in the cell culture media of different GFR-binding compounds as defined hereins (SEQ ID NO: 50 to 104) in solution. […] This was probed by Stro-1 immunostaining after cell fixation as described in the Methods section. The quantification of Stro-1 positive contact numbers and areas was performed as described in the Methods section. A minimum of 30 cells per condition were analyzed.
RMSD values are always calculated for a GFR-binding peptide sequence exempt from any bioactive-carrier-affinity-containing group as defined herein (e.g. cysteine, WWFWG, GTPGP, etc. . . . ). When needed i.e. when attachment to a bioactive carrier is contemplated, the bioactive-carrier-affinity-containing group is then present in the GFR-binding compound when it is biologically tested. Using the method detailed in the description, the RMSD of 57 previously reported peptide sequences have been determined (Table 6) and correlated with the expression of STRO-1 after grafted on a PET surface via a procedure as already described above. […] One should note that it is commonly admitted that the expression of STRO-1 in a cell is indicative of a cell that is in a substantially non-differentiated state and the decrease of its expression of at least about 20% is indicative of a cell that has started a processes of differentiation but which may not result in the differentiation of the cell. A decrease of more than 50% would be indicative of the presence of a significant shift towards a differentiated state. A decrease of more than 70% would be indicative of the presence of a very important shift towards a differentiated state. A sustained decrease (e.g. for at least 96 h) of more than 50% or 70% would be indicative of the presence of an even more important shift towards a differentiated state.
Likewise, using the method detailed in the description, the RMSD of 87 GFR-binding peptide sequence representatives of the invention have been determined (Table 7) and correlated with the expression of STRO-1 after grafted on a PET surface via a procedure as already described above. SEQ ID NO: 1 to 49 were tested in combination with a bioactive carrier as defined above in the Examples Section (i.e. titanium, ceramics, PEEK, hydrogel, etc. . . . ), whereas SEQ ID NO: 1143 to 1180 were tested in solution.

Compared with NDEGLESVPTGQNAISVLYF [SEQ ID NO: 17], RNVQSRPTQVQLNAISVLYF [SEQ ID NO: 11] is lower in STRO-1 expression: 31% for the first, 24% for the second.

Going from RNVQSRPTQVQLSAISMLYL [SEQ ID NO: 14] to RVPSTSSVPAKTSPISILYI [SEQ ID NO: 43], the STRO-1 expression falls from 16% to 15%.

First: STPPTSSVPTRLSAISMLYL [SEQ ID NO: 3]
Second: TVPKPSSAPTQLSAISMLYL [SEQ ID NO: 18]
The STRO-1 expression of the first is lower: 19% for the first, 23% for the second.

Going from “VPAEESPISILYI (CVPAEESPISILYI; GFR-binding peptide) [SEQ ID NO: 48]” to “VPAGQSPISILYI (CVPAGQSPISILYI; GFR-binding peptide) [SEQ ID NO: 46]”, the STRO-1 expression falls from 21% to 20%.

same assay, conditions: SEQ ID NO: 1 to 49 tested in combination with a bioactive carrier (titanium, ceramics, PEEK, hydrogel, etc.), listed as 47

Work on NDEGLESVPAEESPISILYI [SEQ ID NO: 47] yielded an STRO-1 expression of 18%.

same assay, conditions: SEQ ID NO: 1143 to 1180 tested in solution

Compared with “NDEGLESVPEDLSSLSVLFF (GFR-binding peptide) [SEQ ID NO: 1143]”, “RVPSTSSAPTKMKPLSMLYV (GFR-binding peptide) [SEQ ID NO: 1169]” is lower in STRO-1 expression: 23% for the first, 22% for the second.

“RVPSTSSAPTKMNAISMLYF (GFR-binding peptide) [SEQ ID NO: 1145]” and “RVPSTSSTQVDLNAISVLYF (GFR-binding peptide) [SEQ ID NO: 1159]” are the same in STRO-1 expression: 23% for the first, 23% for the second.

Compared with “RVPSTSSTQVKMSAISMLYL (GFR-binding peptide) [SEQ ID NO: 1155]”, “RVPSTSSVPAEESNITVQIM (GFR-binding peptide) [SEQ ID NO: 1176]” is higher in STRO-1 expression: 17% for the first, 26% for the second.

Compared with “RVPSTSSVPEKMEPLTMLYY (GFR-binding peptide) [SEQ ID NO: 1173]”, “RVPSTSSVPTGQSAISTLYL (GFR-binding peptide) [SEQ ID NO: 1144]” is higher in STRO-1 expression: 18% for the first, 19% for the second.

Going from “STPPTSSAPVGQSPISMLYI (GFR-binding peptide) [SEQ ID NO: 1162]” to “STPPTSSSRVQLSAISMLYL (GFR-binding peptide) [SEQ ID NO: 1154]”, the STRO-1 expression falls from 19% to 15%.

First: STPPTSSTPTKMSNITTQIM (GFR-binding peptide) [SEQ ID NO: 1175]
Second: STPPTSSVPTELSPISTLYK (GFR-binding peptide) [SEQ ID NO: 1147]
The STRO-1 expression of the first is higher: 27% for the first, 21% for the second.

First: STPPTSSVPTEVSPINTLYF (GFR-binding peptide) [SEQ ID NO: 1166]
Second: STPPTSSVSQKMKPLSILYV (GFR-binding peptide) [SEQ ID NO: 1170]
The STRO-1 expression of the first is lower: 19% for the first, 25% for the second.

same assay, conditions: grafted on a PET surface

Going from “NEVLRFCGIQVPEGDEPLT (Previously reported sequence) [SEQ ID NO: 1094, reference compound]” to “NPGASASPCCVSQDLEPLPIL (Previously reported sequence) [SEQ ID NO: 1098, reference compound]”, the STRO-1 expression falls from 98% to 86%.

Going from “PIIYYVGRNVRVEQLSNMVVRA (Previously reported sequence) [SEQ ID NO: 1087, reference compound]” to “PIIYYVGRNVRVEQLSNMVVRRA (Previously reported sequence) [SEQ ID NO: 1088, reference compound]”, the STRO-1 expression rises from 92% to 98%.

Compared with “PNYSVPAGNKPLSERE (Previously reported sequence) [SEQ ID NO: 1100, reference compound]”, “SATSRLALSDVPAELAA (Previously reported sequence) [SEQ ID NO: 1112, reference compound]” is higher in STRO-1 expression: 95% for the first, 98% for the second.

“SFRTARANAPTGRSSLSGEKEQQEASTHS (Previously reported sequence) [SEQ ID NO: 1120, reference compound]” and “SHQSAGDSIKSPARHSAPTHQEPLPD (Previously reported sequence) [SEQ ID NO: 1099, reference compound]” are the same in STRO-1 expression: 91% for the first, 91% for the second.

Compared with “SPISILVVPELDASLPEKRPSLDGFEALLVYNAPKA (Previously reported sequence) [SEQ ID NO: 1106, reference compound]”, “SRVLPIVVQGYVPVQDTKFLGIYYVIGPIIARVILSSSSAISSLNKS (Previously reported sequence) [SEQ ID NO: 1138, reference compound]” is higher in STRO-1 expression: 82% for the first, 84% for the second.

First: SSVPAVCSATSATGPYSSGSVEVTFDVYATTVY (Previously reported sequence) [SEQ ID NO: 1116, reference compound]
Second: SSVPAVCSATSATGPYSTATNTVVVFDVYATTVY (SSVPAVCSATSATGPYSTATNTVWFDVYATTVY; Previously reported sequence) [SEQ ID NO: 1117, reference compound]
The STRO-1 expression of the first is higher: 92% for the first, 91% for the second.

“SVPAVCSATSATGPYSSVTVTSWPSIVATGGTT (Previously reported sequence) [SEQ ID NO: 1114, reference compound]” and “SVPAVCSATSATGPYSTATNTVVVPSIVATGGTT [SEQ ID NO: 1115, reference compound]” are the same in STRO-1 expression: 92% for the first, 92% for the second.

Compared with “TCCVPELSAISMLYLDEN (Previously reported sequence) [SEQ ID NO: 1131, reference compound]”, “TKPLSSLLFPNWNTTTTPTPPRP (Previously reported sequence) [SEQ ID NO: 1101, reference compound]” is higher in STRO-1 expression: 84% for the first, 91% for the second.

Going from “TLXPIVSSXNPSPISFRXIKILLHDLEVVPFPKSRVR (not fully specified; X: residue not identified in the source; ends and bridges not checked) [SEQ ID NO: 1107, reference compound]” to “TPTVVSATSL (Previously reported sequence) [SEQ ID NO: 1111, reference compound]”, the STRO-1 expression rises from 84% to 98%.

First: TPTYSRPVQKAELTR (Previously reported sequence) [SEQ ID NO: 1091, reference compound]
Second: VEQLSNMVVK (Previously reported sequence) [SEQ ID NO: 1086, reference compound]
The STRO-1 expression of the first is lower: 97% for the first, 98% for the second.

“VGAAWWLREQGSPINTLAVPA (Previously reported sequence) [SEQ ID NO: 1103, reference compound]” and “VHLLKPHAVPKACCAPTKLSATSVLYYDSSNNVILRKHRNMVVRACGCH (Previously reported sequence) [SEQ ID NO: 1118, reference compound]” are the same in STRO-1 expression: 88% for the first, 88% for the second.

Compared with “VPTELSPISLLYLDEFEKVTLKNYQDMVVDG (Previously reported sequence) [SEQ ID NO: 1110, reference compound]”, “VPTKLEPISVLYKDDMGVPTLKYHYEGMAVSECGCR (Previously reported sequence) [SEQ ID NO: 1105, reference compound]” is lower in STRO-1 expression: 87% for the first, 81% for the second.

Compared with “VPTKLSPISILYKDDMGVPTYKFKYEGMSVAECGCR (Previously reported sequence) [SEQ ID NO: 1109, reference compound]”, “VPTKLSPISILYLDKGVVTYKFKYEGMSVAECGCR (Previously reported sequence) [SEQ ID NO: 1108, reference compound]” is lower in STRO-1 expression: 82% for the first, 80% for the second.
